Results published in patent publication US11820760B2, “Crystalline polymorphs of Bruton's tyrosine kinase inhibitors” (BIOGEN MA INC., priority 2018, dated 2023).
One block for each molecule: values may come before it.

Assays:
Assay type in all cases: physicochemical
[1] = Variable temperature powder X-ray diffraction (VT-PXRD) of crystalline forms
Procedure: Crystallinity of the compound was studied using a XRD-D8 X-ray powder diffractometer using Cu Ka radiation (Bruker, Madison, Wis.). The instrument is equipped with a long fine focus X-ray tube. The tube voltage and amperage were set to 40 kV and 40 mA, respectively. The divergence and scattering slits were set at 1° and the receiving slit was set at 0.15 mm. Diffracted radiation was detected by a Lynxeye detector. A θ-2θ continuous scan at 1.6°/min from 3 to 42° 2θ was used. The sample was prepared for analysis by placing it on a zero background plate. Variable temperature powder X-ray diffraction (VT-PXRD) of Form B was performed by hearing a sample of Form B to 130° C. under N2, following by cooling back down to 30° C. […] (losing all water at this temperature) under N2, indicating Form B is a hygroscopic anhydrate. Variable temperature powder X-ray diffraction (VT-PXRD) of Form C was performed. A sample of Form C was dehydrated by purging the sample under N2 at 30° C. for 20 minutes and then heated to 100° C. under N2 followed by cooling back down to 30° C. and exposed to air for 20 minutes.

[2] = PXRD of Form P after grinding in water; details: Form P with 2.9 wt % water ground in water with mortar and pestle to a viscous slurry
Procedure: Crystallinity of the compound was studied using a XRD-D8 X-ray powder diffractometer using Cu Ka radiation (Bruker, Madison, Wis.). The instrument is equipped with a long fine focus X-ray tube. The tube voltage and amperage were set to 40 kV and 40 mA, respectively. The divergence and scattering slits were set at 1° and the receiving slit was set at 0.15 mm. Diffracted radiation was detected by a Lynxeye detector. A θ-2θ continuous scan at 1.6°/min from 3 to 42° 2θ was used. The sample was prepared for analysis by placing it on a zero background plate. Crystalline Form P with 2.9 wt % of water were prepared using similar procedures as described in Method A. Dichloromethane (15V) and n-propyl acetate (35 V) were used as solvents and the DSC/TGA graph is shown in FIG. 25. Crystalline Form P with 2.9 wt % of water was ground in water using a mortar and pestle to produce a viscous slurry. The sample was rapidly prepared, covered with Kapton film and analyzed by PXRD.

[3] = PXRD comparison of Form H before and after heating; details: heated to 125° C.
Procedure: Crystallinity of the compound was studied using a XRD-D8 X-ray powder diffractometer using Cu Ka radiation (Bruker, Madison, Wis.). The instrument is equipped with a long fine focus X-ray tube. The tube voltage and amperage were set to 40 kV and 40 mA, respectively. The divergence and scattering slits were set at 1° and the receiving slit was set at 0.15 mm. Diffracted radiation was detected by a Lynxeye detector. A θ-2θ continuous scan at 1.6°/min from 3 to 42° 2θ was used. The sample was prepared for analysis by placing it on a zero background plate. A sample of Form H was heated to 125° C. and PXRD pattern was compared with PXRD pattern for the sample before heating.

form conversion after exposure to air (VT-PXRD) ([1]; exposure to air for about 2.5 hours, re-absorbs water): converts back to Form C
SMILES: Cn1cc(Nc2nccc(-c3ccc4c(c3)CN(C3COC3)CC[C@H]4NC(=O)c3cn(C(C)(C)C)nn3)n2)cn1 [Form L, (R)-1-(tert-butyl)-N-(8-(2-((1-methyl-1H-pyrazol-4-yl)amino)pyrimidin-4-yl)-2-(oxetan-3-yl)-2,3,4,5-tetrahydro-1H-benzo[c]azepin-5-yl)-1H-1,2,3-triazole-4-carboxamide]

PXRD peak shifts after grinding in water [2]: No peak shifts
SMILES: Cn1cc(Nc2nccc(-c3ccc4c(c3)CN(C3COC3)CC[C@H]4NC(=O)c3cn(C(C)(C)C)nn3)n2)cn1 [Form P, (R)-1-(tert-butyl)-N-(8-(2-((1-methyl-1H-pyrazol-4-yl)amino)pyrimidin-4-yl)-2-(oxetan-3-yl)-2,3,4,5-tetrahydro-1H-benzo[c]azepin-5-yl)-1H-1,2,3-triazole-4-carboxamide]

form conversion after heating (PXRD before/after) [3]: no form conversion
SMILES: Cn1cc(Nc2nccc(-c3ccc4c(c3)CN(C3COC3)CC[C@H]4NC(=O)c3cn(C(C)(C)C)nn3)n2)cn1 [Form H, (R)-1-(tert-butyl)-N-(8-(2-((1-methyl-1H-pyrazol-4-yl)amino)pyrimidin-4-yl)-2-(oxetan-3-yl)-2,3,4,5-tetrahydro-1H-benzo[c]azepin-5-yl)-1H-1,2,3-triazole-4-carboxamide]

The remaining lines, values behind:

SMILES: Cn1cc(Nc2nccc(-c3ccc4c(c3)CN(C3COC3)CC[C@H]4NC(=O)c3cn(C(C)(C)C)nn3)n2)cn1 [Form C, (R)-1-(tert-butyl)-N-(8-(2-((1-methyl-1H-pyrazol-4-yl)amino)pyrimidin-4-yl)-2-(oxetan-3-yl)-2,3,4,5-tetrahydro-1H-benzo[c]azepin-5-yl)-1H-1,2,3-triazole-4-carboxamide]
form conversion after dehydration (VT-PXRD) ([1]; purging with N2 for 20 minutes at 30° C.): converted to Form L

SMILES: Cn1cc(Nc2nccc(-c3ccc4c(c3)CN(C3COC3)CC[C@H]4NC(=O)c3cn(C(C)(C)C)nn3)n2)cn1 [Form B, (R)-1-(tert-butyl)-N-(8-(2-((1-methyl-1H-pyrazol-4-yl)amino)pyrimidin-4-yl)-2-(oxetan-3-yl)-2,3,4,5-tetrahydro-1H-benzo[c]azepin-5-yl)-1H-1,2,3-triazole-4-carboxamide]
form conversion after heating (VT-PXRD) ([1]; heated to 130° C. under N2, then cooled back to 30° C.): No form conversion
